In the supplement of paper PMC10307832:

Tests used:
Test in all cases: relative viability (nuclei count vs DMSO), 5 days (fraction); higher = more cells survive
[1] = compound: CC1(C)CCC(CN2CCN(c3ccc(C(=O)NS(=O)(=O)c4ccc(NCC5CCOCC5)c([N+](=O)[O-])c4)c(Oc4cnc5[nH]ccc5c4)c3)CC2)=C(c2ccc(Cl)cc2)C1 [Venetoclax] + CS(=O)(=O)CCNCc1ccc(-c2ccc3ncnc(Nc4ccc(OCc5cccc(F)c5)c(Cl)c4)c3c2)o1 [Lapatinib] (partner 2 µM)
Procedure, shortened: (§1)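 Medians of duplicate plates are given as relative viability. That measure is the nuclei count in treated wells divided by the count in vehicle wells. Counts were taken on 4× images of lung cancer cell lines in 1536-well plates, 5 days after pin-tool dosing the day after seeding with one drug alone or a fixed anchor-drug dose plus five library-drug doses (not always all listed) in √10 steps.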

[2] = compound: CC1(C)CCC(CN2CCN(c3ccc(C(=O)NS(=O)(=O)c4ccc(NCC5CCOCC5)c([N+](=O)[O-])c4)c(Oc4cnc5[nH]ccc5c4)c3)CC2)=C(c2ccc(Cl)cc2)C1 [Venetoclax] + Cc1nc(Nc2ncc(C(=O)Nc3c(C)cccc3Cl)s2)cc(N2CCN(CCO)CC2)n1 [Dasatinib] (partner 0.075 µM)
Procedure, shortened: as §1

[3] = compound: Cn1cnc2c(F)c(Nc3ccc(Br)cc3Cl)c(C(=O)NOCCO)cc21 [Selumetinib] + C[C@@H](Oc1cc(-c2cnn(C3CCNCC3)c2)cnc1N)c1c(Cl)ccc(F)c1Cl [Crizotinib] (partner 1 µM)
Procedure, shortened: as §1

[4] = compound: Cn1cnc2c(F)c(Nc3ccc(Br)cc3Cl)c(C(=O)NOCCO)cc21 [Selumetinib] + O=C(c1cc(Cc2n[nH]c(=O)c3ccccc23)ccc1F)N1CCN(C(=O)C2CC2)CC1 [Olaparib] (partner 8 µM)
Procedure, shortened: as §1

Row | Cell Line | relative viability ([1]; first compound 0.01 µM) | relative viability ([1]; first compound 0.03162 µM) | relative viability ([1]; first compound 0.1 µM) | relative viability ([1]; first compound 0.3162 µM) | relative viability ([1]; first compound 1 µM) | relative viability ([2]; first compound 0.01 µM) | relative viability ([2]; first compound 0.03162 µM) | relative viability ([2]; first compound 0.1 µM) | relative viability ([2]; first compound 0.3162 µM) | relative viability ([2]; first compound 1 µM) | relative viability ([3]; first compound 0.02 µM) | relative viability ([3]; first compound 0.06325 µM) | relative viability ([3]; first compound 0.2 µM) | relative viability ([3]; first compound 0.6325 µM) | relative viability ([4]; first compound 0.02 µM) | relative viability ([4]; first compound 0.06325 µM) | relative viability ([4]; first compound 0.2 µM) | relative viability ([4]; first compound 0.6325 µM)
1 | NCI-H838 | 0.977 | 1.07 | 0.962 | 0.978 | 0.891 | 0.367 | 0.288 | 0.303 | 0.312 | 0.279 | 0.783 | 0.689 | 0.634 | 0.601 | 0.727 | 0.67 | 0.652 | 0.662
2 | NCI-H1993 | 0.783 | 0.861 | 0.796 | 0.733 | 0.813 | 0.641 | 0.546 | 0.493 | 0.541 | 0.537 | 0.781 | 0.766 | 0.749 | 0.748 | 1.16 | 0.808 | 0.876 | 0.795
3 | CAL-12T | 0.584 | 0.74 | 0.577 | 0.61 | 0.679 | 0.286 | 0.476 | 0.381 | 0.398 | 0.314 | 0.621 | 0.573 | 0.704 | 0.597 | 0.678 | 0.651 | 0.595 | 0.564
4 | LCLC-97TM1 | – | 1 | 0.579 | 0.868 | 0.814 | 0.856 | 0.888 | 0.764 | 0.733 | 0.802 | 0.527 | 0.496 | 0.467 | 0.504 | 0.292 | 0.407 | 0.3 | 0.19
5 | NCI-H1355 | 1.02 | 1.02 | 0.968 | 0.93 | 0.993 | 0.697 | 0.731 | 0.623 | 0.723 | 0.602 | 1.06 | 1.1 | 0.796 | 0.681 | 0.696 | 0.614 | 0.616 | 0.534
6 | NCI-H596 | 1.09 | 1.24 | 0.971 | 1.15 | 1.11 | 0.707 | 0.549 | 0.587 | 0.572 | 0.615 | 0.966 | 0.875 | 0.845 | 0.599 | 0.596 | 0.663 | 0.572 | 0.599
7 | NCI-H1944 | 0.859 | 0.654 | 0.802 | 0.853 | 0.912 | 0.283 | 0.235 | 0.201 | 0.222 | 0.227 | 1.03 | 0.887 | 0.497 | 0.71 | 0.394 | 0.386 | 0.359 | 0.318
8 | NCI-H2085 | 0.658 | 0.849 | 0.749 | 0.821 | 0.747 | 0.273 | 0.238 | 0.282 | 0.243 | 0.22 | 0.889 | 0.89 | 0.822 | 0.704 | 0.704 | 0.771 | 0.689 | 0.671
9 | 201T | 1.07 | 0.943 | 0.959 | 1.02 | 1.08 | 0.545 | 0.551 | 0.614 | 0.501 | 0.488 | 1.01 | 0.99 | 0.93 | 0.902 | 0.781 | 0.791 | 0.79 | 0.79
10 | NCI-H2405 | 1.07 | 1.08 | – | 1.01 | 1 | 0.179 | 0.199 | 0.186 | 0.197 | 0.197 | 0.774 | 0.774 | 0.716 | 0.549 | 0.85 | 0.762 | 0.844 | 0.581
11 | LXF-289 | 0.956 | 0.925 | 0.874 | 0.906 | 0.809 | 0.137 | 0.262 | 0.242 | 0.253 | 0.166 | 0.872 | 0.7 | 0.664 | 0.616 | 1.04 | 1.01 | 0.963 | 1.04
12 | LC-2-ad | 0.986 | 0.899 | 0.876 | 0.973 | 0.938 | 0.575 | 0.612 | 0.522 | 0.671 | 0.544 | 0.397 | 0.446 | 0.431 | 0.405 | 0.8 | 0.503 | 0.757 | 0.672
13 | NCI-H2126 | 0.738 | 0.731 | 0.734 | 0.769 | 0.73 | 0.568 | 0.572 | 0.612 | 0.607 | 0.546 | 1.01 | 1 | 0.913 | 0.887 | 0.893 | 0.833 | 0.813 | 0.742
14 | COR-L23 | 0.921 | 0.957 | 0.983 | 0.922 | 0.938 | 0.414 | 0.505 | 0.484 | 0.495 | 0.504 | 0.798 | 0.653 | 0.556 | 0.622 | 0.404 | 0.385 | 0.414 | 0.446
15 | BEN | 0.745 | 0.781 | 0.735 | 0.626 | 0.613 | 0.323 | 0.362 | 0.374 | 0.34 | 0.303 | 0.773 | 0.873 | 0.834 | 0.776 | 1.13 | 1.08 | 1.14 | 0.988
16 | LK-2 | 0.973 | 0.99 | 0.846 | 0.894 | 0.767 | 0.403 | 0.319 | 0.259 | 0.247 | 0.255 | 0.239 | 0.234 | 0.229 | 0.262 | 0.811 | 0.842 | 0.818 | 0.759
17 | NCI-H460 | 0.971 | 0.974 | 0.994 | 0.935 | 0.866 | 0.597 | 0.532 | 0.401 | 0.527 | 0.478 | 0.852 | 0.714 | 0.672 | 0.544 | 0.433 | 0.384 | 0.342 | 0.225
18 | NCI-H647 | 1.14 | 1.15 | – | 1.21 | 0.978 | 0.16 | 0.218 | 0.162 | 0.238 | 0.228 | 1.14 | 0.942 | 0.926 | 0.99 | 0.608 | 0.605 | 0.479 | 0.643
19 | ABC-1 | 1.24 | 1.17 | 1.1 | 1.14 | 1.13 | 0.665 | 0.655 | 0.445 | 0.658 | 0.604 | 1.57 | 1.03 | 1.11 | 1.12 | 0.885 | 0.726 | 0.737 | 0.768
20 | NCI-H1734 | 1.1 | 0.993 | 0.925 | 0.921 | 1.07 | 0.471 | 0.415 | 0.417 | 0.446 | 0.451 | 0.775 | 0.52 | 0.591 | 0.574 | 0.604 | 0.391 | 0.557 | 0.56
21 | NCI-H2023 | 0.935 | 0.888 | 0.748 | 0.898 | 0.627 | 0.697 | 0.53 | 0.653 | 0.512 | 0.46 | 0.649 | 0.533 | 0.431 | 0.503 | 0.555 | 0.467 | 0.454 | 0.487
22 | NCI-H2009 | 1.06 | 0.902 | 1.05 | 1.01 | 0.851 | 0.37 | 0.315 | 0.283 | 0.302 | 0.266 | 0.765 | 0.623 | 0.53 | 0.336 | 0.775 | 0.6 | 0.608 | 0.316
23 | HCC-78 | 0.859 | 0.736 | 0.604 | 0.935 | 0.662 | 0.442 | 0.441 | 0.409 | 0.323 | 0.368 | 0.276 | 0.306 | 0.281 | 0.299 | 0.904 | 0.738 | 0.723 | 0.789
